# Experiments:
# [1] = crystalline form; see U.S. Pat. No. 6,429,210; cited from earlier work
# [2] = laser diffraction, dry module, 1 bar
# Procedure: The particles obtained in Example 1 and Comparative Examples 1 and 2 were analyzed for particle size distribution using a particle size analyzer (Mastersizer 2000®, Malvern) based on laser diffraction. The samples were injected at a pressure of 1 bar with a dry module (Scirocco 2000®, Malvern). Each particle was measured for particle size (d0.1), particle size (d0.5) and particle size (d0.9).
Compound,d(0.1) [2],d(0.5) [2],d(0.9) [2],density [1]
"COC(=O)[C@H](c1ccccc1Cl)N1CCc2sccc2C1 [Form I, clopidogrel bisulfate]",–,–,–,1.505 g/cm^2
"COC(=O)[C@H](c1ccccc1Cl)N1CCc2sccc2C1 [Comp. Example 1, clopidogrel bisulfate]",1.052 μm,6.055 μm,13.724 μm,–
"COC(=O)[C@H](c1ccccc1Cl)N1CCc2sccc2C1 [Form II, clopidogrel bisulfate]",–,–,–,1.462 g/cm^2

# The next lines start with results.
d(0.1) [2],d(0.5) [2],d(0.9) [2],Compound,density [1]
8.475 μm,85.770 μm,168.393 μm,"COC(=O)[C@H](c1ccccc1Cl)N1CCc2sccc2C1 [Comp. Example 2, clopidogrel bisulfate]",–
52.536 μm,74.567 μm,106.074 μm,"COC(=O)[C@H](c1ccccc1Cl)N1CCc2sccc2C1 [Example 1, clopidogrel bisulfate]",–
